Assays:
[1] = target: FITC-casein; assay: fluorescence polarisation
[2] = test system: ClpC1-F444S; format: biochemical, Mycobacterium tuberculosis
[3] = test system: ClpC1-F444S; format: biochemical, Mycobacterium tuberculosis; remark: listed apart in the source
[4] = test system: ClpC1-E288A; format: biochemical, Mycobacterium tuberculosis
[5] = test system: ClpC1-E626A; format: biochemical, Mycobacterium tuberculosis
[6] = test system: ClpC1-WT–ClpP1P2; format: biochemical, Mycobacterium tuberculosis
[7] = test system: ClpC1-F444S–ClpP1P2; format: biochemical, Mycobacterium tuberculosis
[8] = test system: ClpC1-E288A with Sa ClpP; format: biochemical, Mycobacterium tuberculosis ClpC1; Staphylococcus aureus ClpP
[9] = test system: ClpC1-E626A with Sa ClpP; format: biochemical, Mycobacterium tuberculosis ClpC1; Staphylococcus aureus ClpP
[10] = test system: ClpC1-WT–ClpP1P2; format: biochemical, Mycobacterium tuberculosis; settings: pH 7.5
[11] = test system: ClpC1-F444S–ClpP1P2; format: biochemical, Mycobacterium tuberculosis; remark: listed apart in the source
[12] = test system: ClpC1-WT–P1P2; format: biochemical, Mycobacterium tuberculosis
[13] = test system: ClpC1-F444S–ClpP1P2; format: biochemical, Mycobacterium tuberculosis; remark: listed apart in the source
[14] = test system: ClpC1-WT and ClpP1P2; format: biochemical, Mycobacterium tuberculosis
[15] = test system: ClpC1-F444S and ClpP1P2; format: biochemical, Mycobacterium tuberculosis
[16] = test system: ClpC1–Sa ClpP; format: biochemical, Mycobacterium tuberculosis ClpC1; Staphylococcus aureus ClpP
[17] = test system: Mtb cells; settings: ref [19], cited from earlier work
[18] = test system: NMtb–ClpC; settings: ref [26]; cited from earlier work
[19] = test system: Sa ClpC; settings: ref [26]; cited from earlier work

## ATPase-deficient double Walker B variant ClpC1-E288A-E626A (from UniProt P9WPC9 1-848) (enzyme)
[1]
  Kd: 1 µM

## CyclomarinA [CymA]
[2]
  change of mass profile: No major changes in mass profiles
[3]
  change of crosslink pattern / hexamer level: remained the same
[4]
  effect on ATP hydrolysis of ClpC1-E288A: stimulated ATP hydrolysis of ClpC1-E288A
[5]
  effect on ATP hydrolysis of ClpC1-E626A: but not ClpC1-E626A
[6]
  inhibition of ClpC1-WT–ClpP1P2 activity: did not observe strong inhibition
[6]; pH 7.5
  increase of basal FITC-casein degradation activity: fourfold
[7]
  effect of CymA on FITC-casein degradation by ClpC1-F444S–ClpP1P2: further enhanced
[8]
  effect on FITC-casein degradation: did not enhance FITC-casein degradation
[9]
  effect on FITC-casein degradation: did not enhance FITC-casein degradation
[10]
  enhancement of GFP-SsrA degradation: 1.8 fold
[11]
  effect of CymA on GFP-SsrA degradation by ClpC1-F444S–ClpP1P2: slightly reduced
[12]
  effect on VapB15 degradation: minor inhibition
[13]
  effect on VapB15 degradation: inhibitory effect
[14]
  enhancement of FR-L-GFP degradation rate by CymA: 1.6 fold
[15]
  reduction of ClpS-dependent FR-L-GFP degradation activity of ClpC1-F444S by CymA: 2.3 fold
[16]
  effect on FITC-casein degradation by ClpC1–Sa ClpP: comparable to those determined for ClpC1–ClpP1P2 complexes
[17]; [20], [21], [22]
  toxicity to Mtb cells: highly toxic to Mtb cells
[17]
  cellular toxicity in Mtb cells: severe cellular toxicity
[18]
  effect on ATPase and proteolytic activities of NMtb–ClpC: increases both ATPase and proteolytic activities
[19]
  sensitivity of Sa ClpC WT with native NTD to CymA: insensitive
